Results as given in patent publication US11241427B2, “Small molecule modulators of NR2F6 activity” (Regen Biopharma, Inc., priority 2015, dated 2022).
Like-named read-outs stand apart in the source and are kept apart here.

Biological target: T1, NR2F6 (ligand binding domain, amino acids 163-404) (Homo sapiens, UniProt P10588)
T1 construct: HIS (N, cleaved yes); FLAG (N, cleaved yes); TEV site (N, cleaved yes); made in house; host or cells: E. coli BL21 (DE3)
T1 sequence (P10588 163-404): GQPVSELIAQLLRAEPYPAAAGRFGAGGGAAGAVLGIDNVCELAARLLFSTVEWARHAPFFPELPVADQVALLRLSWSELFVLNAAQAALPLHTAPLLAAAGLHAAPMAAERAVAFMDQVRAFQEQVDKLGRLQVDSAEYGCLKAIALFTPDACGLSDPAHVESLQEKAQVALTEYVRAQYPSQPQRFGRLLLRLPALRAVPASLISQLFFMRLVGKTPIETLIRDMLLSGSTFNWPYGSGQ
Assay: Thermoshift analysis (TSA) of compound binding to NR2F6
Conditions: for Tm: NR2F6 alone Tm 48 °C
Description: The binding interaction between target protein NR2F6 and 139 compounds selected from an in silico screen was assessed using thermoshift analysis (TSA). Thermoshift is a physical technique used to determine the melting temperature of a protein. The interaction of the ligand to the folded state of the protein shifts the melting temperature. In the experimental system used, the NR2F6 protein is mixed with the ligand and the fluorescent dye SYPRO Orange®. The fluorescence is monitored over temperature gradient between 20 and 95° C. with 0.5° C. increment. The dye binds to the hydrophobic regions of molten globules and denatured proteins resulting in an increase of fluorescence. A plot of the fluorescence is obtained and used to determine the melting temperature in absence and presence of ligand.
The ligand binding domain of NR2F6 (amino acids 163-404) was cloned for soluble expression in E. coli with an N-terminal HIS-FLAG-TEV-tag. Expression was performed in BL21 (DE3) cells. In brief, a 12L E. coli culture was induced with IPTG in logarithmic phase and further incubated over night at 18° C. Cells were harvested via centrifugation, washed with buffer and stored at […] until purification.
The purification procedure performed consists of HIS affinity chromatography, tag cleavage, negative affinity chromatography, size exclusion chromatography and ion exchange chromatography.
Thermoshift analysis was performed on 139 Compounds that were stored as powder in DMSO stocks. A reaction volume of 25 μl was used, with reaction temperatures being increased in 0.5 increments from 20-95° C. in 96 well, PCR plates (Hard-Shell®, HSP-9655). The control was NR2F6 protein alone in 1% DMSO. For performing the reaction, a reaction buffer comprising of the following was utilized: 20 mM HEPES pH 6.85, 150 mM NaCl, 10% Glycerin and 0.5 mM TCEP.
The following pipetting sequence was used: 1) Add appropriate volume of target enzyme in reaction buffer; 2) Add appropriate volume of dye SYPRO Orange® in reaction buffer; 3) Add inhibitor in 100% DMSO (1% final DMSO conc); 4) Measure fluorescence
Fluorescence was quantified using a CFX Connect™ Real-Time PCR Detection System (BioRad)
An increase in melting temperature is indicative for compound binding.

[1] = Table 1.1, 100 μM compound, 0.5 mg/ml NR2F6, 1% DMSO
[2] = Table 1.1, 100 μM compound, shift versus NR2F6 alone (Tm 48 °C)
[3] = Table 1.1, 100 μM compound, shift versus NR2F6 alone (Tm 48 °C), read-out: delta Tm

O=C(Nc1ccncc1)c1ccc(Cl)c(S(=O)(=O)N2CCc3ccccc32)c1 [Cpd 132]
Tm [1]: 47.5 °C | delta Tm [2]: −0.5 °C

COc1ccc(CNc2ncnc3ccccc23)cc1 [Cpd 126]
Tm [1]: 47.5 °C | delta Tm [2]: −0.5 °C

CCCCC/C=C/C=C1/C(=O)C=C[C@@H]1C/C=C\CCCC(=O)O [Cpd 73, 15-Deoxy-D12,14-prostaglandin J2]
Tm [1]: 48 °C | delta Tm [2]: 0 °C

CC/C=C\C/C=C\C/C=C\C/C=C\C/C=C\C/C=C\CCC(=O)O [Cpd 89, Docosa-4Z,7Z,10Z,13Z,16Z,19Z-hexaenoic acid]
Tm [1]: 47.5 °C | ΔTm at 100 µM [3]: -0.5 °C

CCCCCCCC/C=C\CCCCCCCC(=O)NCCO [Cpd 76, N-Oleoylethanolamide]
Tm [1]: 48.5 °C | delta Tm [2]: 0.5 °C

CC(=O)c1ccc(N2CCN(C(=S)Nc3ccc(Oc4ccccc4)cc3)CC2)cc1 [Cpd 131]
Tm [1]: 47.5 °C | delta Tm [2]: −0.5 °C

C=C1/C(=C\C=C2/CCC[C@]3(C)[C@@H]([C@H](C)CCCC(C)(C)O)CC[C@@H]23)C[C@@H](O)C[C@@H]1O [Cpd 83, 1a,25-Dihydroxyvitamin D3]
Tm [1]: 46.5 °C | delta Tm [2]: −1.5 °C

Clc1ccc(OCCN2CCN(c3ncnc4sccc34)CC2)cc1 [Cpd 120]
Tm [1]: 46.5 °C | delta Tm [2]: −1.5 °C

Cc1nn(C)c(C)c1NC(=O)COc1ccc(Cl)cc1Br [Cpd 127]
Tm [1]: 47.5 °C | delta Tm [2]: −0.5 °C

CC(C)c1onc(-c2c(Cl)cccc2Cl)c1COc1ccc(/C=C/c2cccc(C(=O)O)c2)c(Cl)c1 [Cpd 82, GW4064]
Tm [1]: 35 °C | delta Tm [2]: −13 °C

CCN(CC)S(=O)(=O)c1ccc(/C=C/C(=O)Nc2ccc(Br)cc2F)cc1 [Cpd 117]
Tm [1]: 48.5 °C | delta Tm [2]: 0.5 °C

CC(C)(Oc1ccc(CCNC(=O)c2ccc(Cl)cc2)cc1)C(=O)O [Cpd 61, Bezafibrate]
ΔTm at 100 µM [3]: 0 °C

CCCc1c(OCCCCc2nnn[nH]2)ccc(C(C)=O)c1O [Cpd 67, LY 171883]
Tm [1]: 46.5 °C | ΔTm at 100 µM [3]: -1.5 °C

COc1ccc(CN(C)c2ccc(S(=O)(=O)N3CCN(C)CC3)cc2[N+](=O)[O-])cc1OC [Cpd 129]
Tm [1]: 47.5 °C | delta Tm [2]: −0.5 °C

CC(C)=CCC/C(C)=C/CC/C(C)=C/CC/C(C)=C/CO [Cpd 88, Geranylgeranoil]
Tm [1]: 47.5 °C | delta Tm [2]: −0.5 °C

S=C(NCCc1ccccc1)Nc1cccc2cnccc12 [Cpd 136]
Tm [1]: 47.5 °C | delta Tm [2]: −0.5 °C

COc1ccc(/C=N/OCC(=O)NC(c2ccccc2)c2ccccc2)cc1OC [Cpd 138]
Tm [1]: 46 °C | delta Tm [2]: −2 °C

CC(=O)[C@H]1CC[C@H]2[C@@H]3CC=C4C[C@@H](O)CC[C@]4(C)[C@H]3CC[C@]12C [Cpd 71, Pregnenoione]
Tm [1]: 48 °C | delta Tm [2]: 0 °C

CCN(CC)S(=O)(=O)c1cccc(NC(=O)COC(=O)c2[nH]c(C)c(C(C)=O)c2C)c1 [Cpd 123]
Tm [1]: 47.5 °C | delta Tm [2]: −0.5 °C

CCCCCCn1c(NCC)nc2c1c(=O)n(C)c(=O)n2C [Cpd 130]
Tm [1]: 47.5 °C | delta Tm [2]: −0.5 °C

C[C@]12CCC(=O)C=C1CC[C@@H]1[C@@H]2CC[C@]2(C)C(=O)CC[C@@H]12 [Cpd 77, Androstenedione]
ΔTm at 100 µM: -1 °C | Tm [1]: 47 °C

C[C@H](CCC(=O)NCCS(=O)(=O)O)[C@H]1CC[C@H]2[C@@H]3CC[C@@H]4C[C@H](O)CC[C@]4(C)[C@H]3C[C@H](O)[C@]12C [Cpd 81, Taurodeoxycholic acid]
Tm [1]: 47.5 °C | ΔTm at 100 µM [3]: -0.5 °C

C[C@H](CCC(=O)NCCS(=O)(=O)O)[C@H]1CC[C@H]2[C@@H]3[C@H](O)C[C@@H]4C[C@H](O)CC[C@]4(C)[C@H]3C[C@H](O)[C@]12C [Cpd 75, Taurocholic acid]
ΔTm at 100 µM: -0.5 °C | Tm [1]: 47.5 °C

N[C@@H](Cc1cc(I)c(Oc2ccc(O)cc2)c(I)c1)C(=O)O [Cpd 80, 3,5-Diiodo-L-thyroine]
Tm [1]: 48.5 °C | delta Tm [2]: 0.5 °C

CC(CCC(=O)NCC(=O)O)C1CCC2C3CCC4CC(O)CCC4(C)C3CC(O)C12C (stereo not shown) [Cpd 69, Glycodeoxycholic acid]
Tm [1]: 46.5 °C | ΔTm at 100 µM [3]: -1.5 °C

C[C@H](CCC(=O)NCC(=O)O)[C@H]1CC[C@H]2[C@@H]3[C@H](O)C[C@@H]4C[C@H](O)CC[C@]4(C)[C@H]3C[C@H](O)[C@]12C [Cpd 63, Glycochalic acid]
Tm [1]: 48 °C | delta Tm [2]: 0 °C

Cc1ccc(C)c(OCCCC(C)(C)C(=O)O)c1 [Cpd 68, Gemfibrozil]
Tm [1]: 47.5 °C | ΔTm at 100 µM [3]: -0.5 °C

O=Cc1c2c(cc3c1=Nc1ccccc1-3)=Nc1ccccc1-2 [Cpd 17, 6-Formylindolo [3,2-B] carbazole]
Tm (Table 1.2, 100 μM compound): 50 °C

CO[C@H]1/C=C/O[C@@]2(C)Oc3c(C)c(O)c4c(O)c(c(/C=N/N5CCN(C)CC5)c(O)c4c3C2=O)NC(=O)/C(C)=C\C=C\[C@H](C)[C@H](O)[C@@H](C)[C@@H](O)[C@@H](C)[C@H](OC(C)=O)[C@@H]1C [Cpd 87, Rifampicin]
Tm [1]: 49.5 °C | ΔTm at 100 µM [3]: 1.5 °C | Tm (Table 1.2, 100 μM compound): 49.5 °C

CC1=C(/C=C/C(C)=C/C=C/C(C)=C/C(=O)Nc2ccc(O)cc2)C(C)(C)CCC1 [Cpd 43, 4-Hydroxyphenylretinamide]
Tm (Table 1.2, 100 μM compound): 50 °C

CC(=O)c1c(C)[nH]c(C(=O)OCC(=O)Nc2ccc(Cl)cc2[N+](=O)[O-])c1C [Cpd 139]
Tm [1]: 48.5 °C | delta Tm [2]: 0.5 °C

CCN=c1scc(-c2ccc3c(c2)NC(=O)CO3)n1N=C1CCCC1 [Cpd 137]
Tm [1]: 48 °C | delta Tm [2]: 0 °C

N#CCSc1nnc(-c2sc3ccccc3c2Cl)o1 [Cpd 128]
Tm [1]: 48 °C | delta Tm [2]: 0 °C

CCCCCC=CCC=CCC=CCC=CCCCC(=O)O [Cpd 84, 5,8,11,14-Eicosatetranoic acid]
Tm [1]: 46.5 °C | delta Tm [2]: −1.5 °C

COc1ccc(NS(=O)(=O)c2cccc(NC(=O)c3ccc(Cl)nc3)c2)cc1 [Cpd 116]
Tm [1]: 47.5 °C | delta Tm [2]: −0.5 °C

CC1(COc2ccc(CC3SC(=O)NC3=O)cc2)CCCCC1 (stereo not shown) [Cpd 72, Ciglitazone]
ΔTm at 100 µM [3]: -0.5 °C

Cc1cccc(Nc2cc(Cl)nc(SCC(=O)O)n2)c1C [Cpd 66, WY-14643]
Tm [1]: 47.5 °C | ΔTm at 100 µM [3]: -0.5 °C

C/C=C1\C(=O)C[C@H]2[C@@H]3CCC4=CC(=O)CC[C@]4(C)[C@H]3CC[C@]12C [Cpd 64, Z-Guggulsterone]
Tm [1]: 46 °C | delta Tm [2]: −2 °C

CC(C)(Sc1ccc(CCN(CCCCC2CCCCC2)C(=O)NC2CCCCC2)cc1)C(=O)O [Cpd 74, GW 7647]
Tm [1]: 45.5 °C | ΔTm at 100 µM [3]: -2.5 °C

Clc1ccc(-c2nc3sccn3c2/C=N/OCc2ccc(Cl)c(Cl)c2)cc1 [Cpd 85, CITCO]
Tm [1]: 48 °C | delta Tm [2]: 0 °C

Cc1ccc(F)cc1NC(=O)Cc1nn(C)c(=O)c2ccccc12 [Cpd 135]
Tm [1]: 47.5 °C | delta Tm [2]: −0.5 °C

CC(=O)c1c(C)[nH]c(C(=O)COc2cc(C)ccc2C(C)C)c1C [Cpd 125]
Tm [1]: 47.5 °C | delta Tm [2]: −0.5 °C

CC(=O)c1c(C)[nH]c(C(=O)OCCCCN2C(=O)c3ccccc3C2=O)c1C [Cpd 121]
Tm [1]: 48 °C | delta Tm [2]: 0 °C

C[C@]12CC[C@@H]3c4ccc(O)cc4CC[C@H]3[C@@H]1CC[C@@H]2O [Cpd 65, 17b-Estradiol]
Tm [1]: 47 °C | delta Tm [2]: −1 °C
